The text below walks through data of patent US9409966B2, “Glucagon-like peptide-1 derivatives and their pharmaceutical use” (priority 2007, dated 2016).

The target in one assay is T1, human GLP-1 receptor (Homo sapiens, UniProt P43220).
T1 construct: expressed in transfected cells; host or cells: BHK467-12A (tk-ts13) baby hamster kidney cells; purified plasma membranes
The assay is described as follows: Stimulation of cAMP formation in a cell line expressing the cloned human GLP-1 receptor. Format: biochemical. On the technique in general: Cyclic AMP is a second messenger, typically raised through Gs and lowered through Gi signalling.

Assay [1] addresses human serum albumin (HSA) (Homo sapiens, UniProt P02768). As to the kind of experiment: Albumin binding affinity, competition scintillation proximity assay (SPA). (Scintillation proximity formats need no separation of bound from free tracer.)
Procedure: Streptavidin-SPA beads (GE Healthcare RPNQ0009) were incubated with biotinylated HSA for 5 hours. The beads were washed with buffer to remove unbound HSA. […] After 20 hours of gentle rocking at room temperature the plates were centrifuged and counted on a TopCounter.
The mark [2] stands for this setting: cAMP production, purified plasma membranes from BHK467-12A (tk-ts13), AlphaScreen cAMP Assay Kit, read-out: Potency [EC50/nM].

Like-named read-outs stand apart in the source and are kept apart here. *1 amine or outer side, *2 acyl side, *3 side chain or, on linkers, in order; H or OH if unused. Where a SMILES comes first, the peptide text is derived from it. Side-chain parts run from the residue outwards. [ ]: non-standard residue; d: D form. The star is where a group is joined. C18 diacid = O=C(O)CCCCCCCCCCCCCCCCC(=O)*; γGlu = O=C(O)[C@H](CCC(=O)[*:2])N[*:1]; AEEA = NCCOCCOCC(=O)O; Aib = CC(C)(N)C(=O)O

T1 sequence (P43220 24-463): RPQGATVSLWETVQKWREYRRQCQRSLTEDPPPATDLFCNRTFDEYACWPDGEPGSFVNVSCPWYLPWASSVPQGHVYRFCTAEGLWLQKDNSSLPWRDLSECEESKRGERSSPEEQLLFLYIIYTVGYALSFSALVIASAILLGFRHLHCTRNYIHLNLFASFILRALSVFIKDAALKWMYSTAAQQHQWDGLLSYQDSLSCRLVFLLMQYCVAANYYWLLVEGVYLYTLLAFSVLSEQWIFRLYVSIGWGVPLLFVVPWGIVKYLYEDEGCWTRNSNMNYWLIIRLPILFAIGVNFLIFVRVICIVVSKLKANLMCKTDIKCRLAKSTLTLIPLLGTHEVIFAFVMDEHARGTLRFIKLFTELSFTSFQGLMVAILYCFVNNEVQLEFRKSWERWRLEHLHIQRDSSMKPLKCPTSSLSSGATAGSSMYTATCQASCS
human serum albumin (HSA), sequence (P02768 25-609): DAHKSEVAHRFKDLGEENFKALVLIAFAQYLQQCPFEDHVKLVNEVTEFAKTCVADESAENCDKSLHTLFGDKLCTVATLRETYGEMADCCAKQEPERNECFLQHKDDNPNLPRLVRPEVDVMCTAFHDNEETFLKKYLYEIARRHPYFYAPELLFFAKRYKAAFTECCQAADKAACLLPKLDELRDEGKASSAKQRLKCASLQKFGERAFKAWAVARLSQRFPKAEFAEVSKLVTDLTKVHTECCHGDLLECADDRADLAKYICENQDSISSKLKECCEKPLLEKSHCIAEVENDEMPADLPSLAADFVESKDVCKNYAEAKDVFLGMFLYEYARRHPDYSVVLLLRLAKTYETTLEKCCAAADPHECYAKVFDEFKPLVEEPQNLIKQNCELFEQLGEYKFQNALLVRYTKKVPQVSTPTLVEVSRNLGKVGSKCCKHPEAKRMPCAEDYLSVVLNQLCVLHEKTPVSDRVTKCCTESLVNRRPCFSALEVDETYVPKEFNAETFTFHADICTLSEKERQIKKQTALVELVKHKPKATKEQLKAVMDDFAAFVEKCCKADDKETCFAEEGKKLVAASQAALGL

Regarding `CC[C@H](C)[C@H](NC(=O)[C@H](Cc1ccccc1)NC(=O)[C@H](CCC(=O)O)NC(=O)[C@H](CCCNC(=N)N)NC(=O)[C@H](C)NC(=O)[C@H](C)NC(=O)[C@H](CCC(N)=O)NC(=O)[C@H](CCC(=O)O)NC(=O)[C@H](CCC(=O)O)NC(=O)[C@H](CC(C)C)NC(=O)[C@H](Cc1ccc(O)cc1)NC(=O)[C@H](CO)NC(=O)[C@H](CO)NC(=O)[C@@H](NC(=O)[C@H](CC(=O)O)NC(=O)[C@H](CO)NC(=O)[C@@H](NC(=O)[C@H](Cc1ccccc1)NC(=O)[C@@H](NC(=O)CNC(=O)[C@H](CCC(=O)O)NC(=O)C(C)(C)NC(=O)[C@@H](N)Cc1c[nH]cn1)[C@@H](C)O)[C@@H](C)O)C(C)C)C(=O)N[C@@H](C)C(=O)N[C@@H](Cc1c[nH]c2ccccc12)C(=O)N[C@@H](CC(C)C)C(=O)N[C@H](C(=O)N[C@@H](CCCNC(=N)N)C(=O)NCC(=O)N[C@@H](CCCNC(=N)N)C(=O)N[C@@H](CCCCNC(=O)COCCOCCNC(=O)COCCOCCNC(=O)CC[C@H](NC(=O)[C@H]1CC[C@H](CNC(=O)CCCCCCCCCCCCCCCCCCC(=O)O)CC1)C(=O)O)C(=O)O)C(C)C` [Example 32, N-epsilon37-[2-(2-{2-[2-(2-{2-[(S)-4-Carboxy-4-({trans-4-[(19-carboxynonadecanoylamino)methyl]cyclohexanecarbonyl}amino)butyrylamino]ethoxy}ethoxy)acetylamino]ethoxy}ethoxy)acetyl][Aib8,Glu22,Arg26,Arg34,Lys37]GLP-1-(7-37)], the EC50 on human GLP-1 receptor was 0.46 nM; in assay [1], 1 to 100 nM.
As to `CC[C@H](C)[C@H](NC(=O)[C@H](Cc1ccccc1)NC(=O)[C@H](CCC(=O)O)NC(=O)[C@H](CCCNC(=N)N)NC(=O)[C@H](C)NC(=O)[C@H](C)NC(=O)[C@H](CCC(N)=O)NC(=O)[C@H](CCC(=O)O)NC(=O)[C@H](CCC(=O)O)NC(=O)[C@H](CC(C)C)NC(=O)[C@H](Cc1ccc(O)cc1)NC(=O)[C@H](CO)NC(=O)[C@H](CO)NC(=O)[C@@H](NC(=O)[C@H](CC(=O)O)NC(=O)[C@H](CO)NC(=O)[C@@H](NC(=O)[C@H](Cc1ccccc1)NC(=O)[C@@H](NC(=O)CNC(=O)[C@H](CCC(=O)O)NC(=O)[C@H](C)NC(=O)CCc1c[nH]cn1)[C@@H](C)O)[C@@H](C)O)C(C)C)C(=O)N[C@@H](C)C(=O)N[C@@H](Cc1c[nH]c2ccccc12)C(=O)N[C@@H](CC(C)C)C(=O)N[C@H](C(=O)N[C@@H](CCCNC(=N)N)C(=O)NCC(=O)N[C@@H](CCCNC(=N)N)C(=O)N[C@@H](CCCCNC(=O)COCCOCCNC(=O)COCCOCCNC(=O)CC[C@H](NC(=O)[C@H]1CC[C@H](CNC(=O)CCCCCCCCCCCCCCCCCCC(=O)O)CC1)C(=O)O)C(N)=O)C(C)C` [Example 8, N-epsilon37-[2-(2-{2-[2-(2-{2-[(S)-4-Carboxy-4-({trans-4-[(19-carboxy-nonadecanoylamino)methyl]cyclohexanecarbonyl}amino)butyrylamino]ethoxy}ethoxy)acetylamino]ethoxy}ethoxy)acetyl][DesaminoHis7,Glu22,Arg26,Arg34,Lys37]GLP-1-(7-37)amide], the results for the EC50 (on human GLP-1 receptor (setting [2]); in assay [1]) were 0.66 nM and 1500 to 2000 nM, respectively.
As to `CC[C@H](C)[C@H](NC(=O)[C@H](Cc1ccccc1)NC(=O)[C@H](CCC(=O)O)NC(=O)[C@H](CCCNC(=N)N)NC(=O)[C@H](C)NC(=O)[C@H](C)NC(=O)[C@H](CCC(N)=O)NC(=O)[C@H](CCC(=O)O)NC(=O)[C@H](CCC(=O)O)NC(=O)[C@H](CC(C)C)NC(=O)[C@H](Cc1ccc(O)cc1)NC(=O)[C@H](CO)NC(=O)[C@H](CO)NC(=O)[C@@H](NC(=O)[C@H](CC(=O)O)NC(=O)[C@H](CO)NC(=O)[C@@H](NC(=O)[C@H](Cc1ccccc1)NC(=O)[C@@H](NC(=O)CNC(=O)[C@H](CCC(=O)O)NC(=O)[C@H](C)NC(=O)CCc1c[nH]cn1)[C@@H](C)O)[C@@H](C)O)C(C)C)C(=O)N[C@@H](C)C(=O)N[C@@H](Cc1c[nH]c2ccccc12)C(=O)N[C@@H](CC(C)C)C(=O)N[C@H](C(=O)N[C@@H](CCCNC(=N)N)C(=O)NCC(=O)N[C@@H](CCCNC(=N)N)C(=O)N[C@@H](CCCCNC(=O)COCCOCCNC(=O)COCCOCCNC(=O)CC[C@H](NC(=O)CCCCCCCCCCCCCCCCC(=O)O)C(=O)O)C(=O)O)C(C)C` [Example 29, N-epsilon37-[2-(2-{2-[2-(2-{2-[(S)-4-Carboxy-4-(17-carboxy-heptadecanoylamino)-butyrylamino]-ethoxy}-ethoxy)-acetylamino]-ethoxy}-ethoxy)-acetyl] [desaminoHis7,Glu22,Arg26,Arg34,Lys37] GLP-1-(7-37)], the EC50 was 0.1 nM on human GLP-1 receptor (setting [2]) and 400 to 800 nM in assay [1].
The corresponding values for `CCCCCCCCCCCCCCCC(=O)N[C@@H](CCC(=O)NCCOCCOCC(=O)NCCOCCOCC(=O)NCCCC[C@H](NC(=O)[C@H](CCCNC(=N)N)NC(=O)CNC(=O)[C@H](CCCNC(=N)N)NC(=O)[C@@H](NC(=O)[C@H](CC(C)C)NC(=O)[C@H](Cc1c[nH]c2ccccc12)NC(=O)[C@H](C)NC(=O)[C@@H](NC(=O)[C@H](Cc1ccccc1)NC(=O)[C@H](CCC(=O)O)NC(=O)[C@H](CCCNC(=N)N)NC(=O)[C@H](C)NC(=O)[C@H](C)NC(=O)[C@H](CCC(N)=O)NC(=O)[C@H](CCC(=O)O)NC(=O)[C@H](CCC(=O)O)NC(=O)[C@H](CC(C)C)NC(=O)[C@H](Cc1ccc(O)cc1)NC(=O)[C@H](CO)NC(=O)[C@H](CO)NC(=O)[C@@H](NC(=O)[C@H](CC(=O)O)NC(=O)[C@H](CO)NC(=O)[C@@H](NC(=O)[C@H](Cc1ccccc1)NC(=O)[C@@H](NC(=O)CNC(=O)[C@H](CCC(=O)O)NC(=O)[C@H](C)NC(=O)CCc1c[nH]cn1)[C@@H](C)O)[C@@H](C)O)C(C)C)[C@@H](C)CC)C(C)C)C(N)=O)C(=O)O` [Example 18, N-epsilon37-{2-(2-(2-(2-[2-(2-(4-(hexadecanoylamino)-4-carboxybutyrylamino)ethoxy)ethoxy]acetyl)ethoxy)ethoxy)acetyl)}-[desaminoHis7,Glu22, Arg26,Arg34,Lys 37] (GLP-1-(7-37)amide] are 0.02 nM and more than 2000 nM.
For `CC[C@H](C)[C@H](NC(=O)[C@H](Cc1ccccc1)NC(=O)[C@H](CCC(=O)O)NC(=O)[C@H](CCCNC(=N)N)NC(=O)[C@@H](NC(=O)[C@H](C)NC(=O)[C@H](CCC(N)=O)NC(=O)[C@H](CCC(=O)O)NC(=O)[C@H](CCC(=O)O)NC(=O)[C@H](CCCCN)NC(=O)[C@H](Cc1ccc(O)cc1)NC(=O)[C@H](CO)NC(=O)[C@H](CO)NC(=O)[C@@H](NC(=O)[C@H](CC(=O)O)NC(=O)[C@H](CO)NC(=O)[C@@H](NC(=O)[C@H](Cc1ccccc1)NC(=O)[C@@H](NC(=O)CNC(=O)[C@H](CCC(=O)O)NC(=O)C(C)(C)NC(=O)[C@@H](N)Cc1c[nH]cn1)[C@@H](C)O)[C@@H](C)O)C(C)C)C(C)C)C(=O)N[C@@H](C)C(=O)N[C@@H](CCCCNC(=O)COCCOCCNC(=O)COCCOCCNC(=O)CC[C@H](NC(=O)CCCCCCCCCCCCCCCCC(=O)O)C(=O)O)C(=O)N[C@@H](CC(C)C)C(=O)N[C@H](C(=O)N[C@@H](CCCNC(=N)N)C(=O)N[C@@H](CCCNC(=N)N)C(=O)N[C@@H](CCCNC(=N)N)C(=O)N[C@@H](CCCNC(=N)N)C(=O)N[C@@H](CCCNC(=N)N)C(=O)N[C@@H](CCCNC(=N)N)C(=O)N[C@@H](CCCNC(=N)N)C(=O)N[C@@H](CCCNC(=N)N)C(=O)O)C(C)C` [Example 35] (H-H[Aib]EGTFTSDVSSYKEEQAVREFIAK([AEEA-AEEA-γGlu-C18 diacid])LVRRRRRRRR-OH) the same measures were 0.74 nM and 800 to 1500 nM.
Turning to `CC[C@H](C)[C@H](NC(=O)[C@H](Cc1ccccc1)NC(=O)[C@H](CCC(=O)O)NC(=O)[C@H](CCCNC(=N)N)NC(=O)[C@@H](NC(=O)[C@H](C)NC(=O)[C@H](CCC(N)=O)NC(=O)[C@H](CCC(=O)O)NC(=O)[C@H](CCC(=O)O)NC(=O)[C@H](CCCCN)NC(=O)[C@H](Cc1ccc(O)cc1)NC(=O)[C@H](CO)NC(=O)[C@H](CO)NC(=O)[C@@H](NC(=O)[C@H](CC(=O)O)NC(=O)[C@H](CO)NC(=O)[C@@H](NC(=O)[C@H](Cc1ccccc1)NC(=O)[C@@H](NC(=O)CNC(=O)[C@H](CCC(=O)O)NC(=O)C(C)(C)NC(=O)[C@@H](N)Cc1c[nH]cn1)[C@@H](C)O)[C@@H](C)O)C(C)C)C(C)C)C(=O)N[C@@H](C)C(=O)N[C@@H](CCCCNC(=O)COCCOCCNC(=O)COCCOCCNC(=O)CC[C@H](NC(=O)CCCCCCCCCCCCCCCCC(=O)O)C(=O)O)C(=O)N[C@@H](CC(C)C)C(=O)N[C@H](C(=O)N[C@@H](CCCNC(=N)N)C(=O)N[C@@H](CCCNC(=N)N)C(=O)N[C@@H](CCCNC(=N)N)C(=O)N[C@@H](CCCNC(=N)N)C(=O)O)C(C)C` [Example 34, N-epsilon31-[2-(2-{2-[2-(2-{2-[(S)-4-Carboxy-4-(17-carboxyheptadecanoylamino)butyrylamino]ethoxy}ethoxy)acetylamino]ethoxy}ethoxy)acetyl][Aib8,Glu22,Val25,Arg26,Lys31,Arg34,Arg35,Arg37]GLP-1-(7-37)] (H-H[Aib]EGTFTSDVSSYKEEQAVREFIAK([AEEA-AEEA-γGlu-C18 diacid])LVRRRR-OH), the EC50 on human GLP-1 receptor (setting [2]) was 1.27 nM; in assay [1] it was more than 2000 nM.
